Measured values published in patent US20250353821A1, “BENZENE SULFONAMIDE THIAZOLE COMPOUNDS AND THEIR USE FOR THE TREATMENT OF CANCERS” (INSERM (INSTITUT NATIONAL DE LA SANTÉ ET DE LA RECHERCHE …, priority 2021, published 2025).
Converted amounts (≈) assume the structure as drawn.

Key:
[1] = tested on: Normal human fibroblasts (FHN); assay: In vitro toxicity test on normal human fibroblasts, 48 h; type: cell-based; conditions: concentration 10 times higher than its IC50, FIG. 2
[2] = tested on: A375 melanoma cells; assay: Cell viability by cell counting, trypan blue exclusion method; type: cell-based; conditions: Homo sapiens, A-375, 48 h, percentage of cells alive relative to negative control DMSO (100%)
[3] = tested on: normal human melanocytes (MHN); assay: In vitro toxicity test on normal human melanocytes, 48 h; type: cell-based; conditions: concentration 10 times higher than its IC50, FIG. 2
[4] = tested on: CHOP in Kyse 70 cells; assay: CHOP induction (ER stress marker), western blot, Kyse70; type: cell-based, human; parameters: key: −: No induction of CHOP; +: Induction of CHOP; ++: Significant induction of CHOP; +++: Strong induction of CHOP; conditions: Kyse70 (serum free), 24 h
[5] = tested on: CHOP in SH10TC cells; assay: CHOP induction (ER stress marker), western blot, SH10TC; type: cell-based, human; parameters: key: −: No induction of CHOP; +: Induction of CHOP; ++: Significant induction of CHOP; +++: Strong induction of CHOP; conditions: SH10TC (serum free), 24 or 48 h
[6] = Aqueous solubility; type: physicochemical; conditions: aqueous medium (not further specified), read-out: Solublity
[7] = Pharmacokinetics in mice (half-life, AUC IV, AUC PO); type: in vivo; conditions: for half-life: mouse, in vivo, 1 mg/kg, head prints both IV and PO administration 1 mpk, read-out: T½ IV (min) (PO administration 1 mpk)
[8] = tested on: CHOP in KATO III cells; assay: CHOP induction (ER stress marker), western blot, Kato III; type: cell-based, human; parameters: key: −: No induction of CHOP; +: Induction of CHOP; ++: Significant induction of CHOP; +++: Strong induction of CHOP; conditions: Kato III (1% SVF), 24 or 48 h
[9] = tested on: A375 melanoma cells; assay: IC50 determination in A375 cells, blue trypan exclusion; type: cell-based, human; conditions: Homo sapiens, A-375; A375, serum free, 24 h
[10] = tested on: CHOP in A375 melanoma cells; assay: CHOP induction (ER stress marker), western blot, A375; type: cell-based, human; parameters: key: −: No induction of CHOP; +: Induction of CHOP; ++: Significant induction of CHOP; +++: Strong induction of CHOP; conditions: A375 (serum free), 24 h
[11] = tested on: NCI-60 Human Tumor Cell Lines; assay: DTP-NCI-60 Human Tumor Cell Lines screen, one-dose; type: cell-based; conditions: growth relative to no-drug control and time zero, 100 = no inhibition, 0 = no net growth, negative = lethality
[12] = Chemical stability in PBS/DMSO and aqueous HCl; type: physicochemical; conditions: 24 h

Structure (SMILES) | toxicity in normal human fibroblasts [1] | viability at 5 µM ([2]; 5 μM) | viability at 10 µM ([2]; 10 μM) | toxicity in normal human melanocytes [3] | Induction of CHOP in comparison to control condition, Kyse70 [4] | Induction of CHOP in comparison to control condition, SH10TC [5] | solubility [6] | AUC IV (min · ng/mL/mpk) [7] | AUC PO (min · ng/mL/mpk) [7] | half-life [7] | Induction of CHOP in comparison to control condition, Kato III [8] | IC50 [9] | Induction of CHOP in comparison to control condition, A375 [10] | Mean growth inhibition value (data from DTP-NCI60) [11] | chemical stability ([12]; PBS (pH 7.4), 20% DMSO) | chemical stability ([12]; PBS (pH 7.4), 20% DMSO, 80° C.) | chemical stability ([12]; aqueous HCl (0.1M))
CC(=O)NCCCCCC(=O)Nc1nc(-c2cccc(NS(=O)(=O)c3cccc4c(N(C)C)cccc34)c2)cs1 [PB628, 6-acetamido-N-(4-(3-((5-(dimethylamino)naphthalene)-1-sulfonamido)phenyl)thiazol-2-yl)hexanamide] | no toxicity | 25.2 ± 6.1% | 12.5 ± 6.7% | no toxicity |  |  |  |  |  |  |  |  |  |  |  |  | 
CCCCCc1ccc(S(=O)(=O)Nc2cccc(-c3csc(NC(=O)CN4CCN(C)CC4)n3)c2)cc1 [PB688, 2-(4-methylpiperazin-1-yl)-N-(4-(3-((4-pentylphenyl)sulfonamido)phenyl)thiazol-2 yl)acetamide] |  |  |  |  | +++ | ++ | 17 ± 7 µM (≈ 9.21 µg/mL) | 112348 min · ng/mL/mpk | 3000 min · ng/mL/mpk | 76 min | + | 1 µM | +++ |  |  |  | 
CCCCCc1ccc(S(=O)(=O)Nc2cccc(-c3csc(NC(=O)CN4CCN(CCO)CC4)n3)c2)cc1 [PB689, 2-(4-(2-hydroxyethyl)piperazin-1-yl)-N-(4-(3-((4-pentylphenyl)sulfonamido)phenyl)thiazol-2-yl)acetamide] |  |  |  |  | + | +++ |  |  |  | 110 min | ++ | 1.3 µM | + |  |  |  | 
CCCCCc1ccc(S(=O)(=O)Nc2cc(-c3csc(NC(=O)CN4CCN(C)CC4)n3)ccc2OC)cc1 [PB691, N-(4-(4-methoxy-3-((4-pentylphenyl)sulfonamido)phenyl)thiazol-2-yl)-2-(4-methylpiperazin-1-yl)acetamide] |  |  |  |  | ++ | − |  |  | 6266 min · ng/mL/mpk | 77 min | + | 1.7 µM | + |  |  |  | 
CCCCCc1ccc(S(=O)(=O)Nc2cc(-c3csc(NC(=O)CN4CCN(CCO)CC4)n3)ccc2OC)cc1 [PB692, 2-(4-(2-hydroxyethyl)piperazin-1-yl)-N-(4-(4-methoxy-3-((4-pentylphenyl)sulfonamido)phenyl)thiazol-2-yl)acetamide] |  |  |  |  | + | + | 7 ± 5 µM (≈ 4.21 µg/mL) | 488474 min · ng/mL/mpk | 3978 min · ng/mL/mpk |  | + | 1.6 µM | + | 23.99 |  |  | 
CCCCCc1ccc(S(=O)(=O)Nc2cccc(-c3csc(NC(=O)CCCCCN4CCN(C)CC4)n3)c2)cc1 [PB694, 6-(4-methylpiperazin-1-yl)-N-(4-(3-((4-pentylphenyl)sulfonamido)phenyl)thiazol-2-yl)hexanamide] |  |  |  |  | ++ | ++ |  |  |  |  | + | 0.75 µM | + | 37.26 |  |  | 
CCCCCc1ccc(S(=O)(=O)Nc2cccc(-c3csc(NC(=O)CCCCCN4CCN(CCO)CC4)n3)c2)cc1 [PB695, 6-(4-(2-hydroxyethyl)piperazin-1-yl)-N-(4-(3-((4-pentylphenyl)sulfonamido)phenyl)thiazol-2-yl)hexanamide] |  |  |  |  | + | ++ |  |  |  |  | − | 0.6 µM | + |  |  |  | 
CCCCCc1ccc(S(=O)(=O)Nc2cc(-c3csc(NC(=O)CN4CCN(C)CC4)n3)ccc2N2CCN(C)CC2)cc1 [PB696, 2-(4-methylpiperazin-1-yl)-N-(4-(4-(4-methylpiperazin-1-yl)-3-((4-pentylphenyl)sulfonamido)phenyl)thiazol-2-yl)acetamide] |  |  |  |  | − | ++ | 49 ± 16 µM (≈ 31.4 µg/mL) |  |  | 312 min | + | 0.9 µM | + |  |  |  | 
CCCCCc1ccc(S(=O)(=O)Nc2cccc(-c3csc(NCCN4CCN(C)CC4)n3)c2)cc1 [PB704, N-(3-(2-((2-(4-methylpiperazin-1-yl)ethyl)amino)thiazol-4-yl)phenyl)-4-pentylbenzenesulfonamide] |  |  |  |  | + | − | 1.4 ± 0.3 µM (≈ 0.739 µg/mL) | 197707 min · ng/mL/mpk | 4435 min · ng/mL/mpk |  | + | 1.2 µM | ++ | 55.54 | full stability | full stability | full stability
CCCCCc1ccc(S(=O)(=O)N(C(C)=O)c2cccc(-c3csc(N(CCN4CCN(C)CC4)C(C)=O)n3)c2)cc1 [PB705, N-(2-(4-methylpiperazin-1-yl)ethyl)-N-(4-(3-(N-((4-pentylphenyl)sulfonyl)acetamido)phenyl)thiazol-2-yl)acetamide] |  |  |  |  |  |  |  |  |  |  | ++ | 1.3 µM | ++ | 5.64 |  |  | 
